Measurements reported in patent US9359314B2, “Thiazine amide derivative and pharmaceutical composition and use thereof” (Institute Of Pharmacology And Toxicology Academy Of …, priority 2012, dated 2016).

Assays:
[1] = system: MDCK-MDR1 cells
Text: MDCK-MDR1 cells are monolayer cells with high expression of a P-gp transporter after MDR1 genes are transfected in MDCK (Madin-Darby canine kidney epithelial cells). Due to the compactness of the monolayer cells and high expression of a pharmaceutical efflux protein, the cells have a similarity to the structure of the blood-brain barrier (BBB), and can be used as one of the models for evaluating the BBB permeability. Because the compounds of the present invention targeted at the central nervous system and were needed to permeate the BBB, the MDCK-MDR1 cells were applied to research the membrane permeability, and the BBB permeability was preliminarily evaluated.
The cryopreserved MDCK-MDR1 cells were fast thawed in a 37° C. water bath. The postthawed cells were added into a DMEM culture medium containing 10% FBS, cultured in an incubator at 37° C., 5% CO2, with the relative humidity of 90%, and the culture medium was replaced every other day. After 1-2 days' growth for cell fusion, the cells were digested at 37° C., with the mixed digestion solution of 0.25% trysin-EDTA (0.2%), and subcultured according to a certain ratio, wherein the cells used for the experiment are 40˜60-generation cells.
When 80% of the cells were fused, the cells were suspended with a complete culture medium, and inoculated into a Millicell plate according to 1×10^6-mL^−1. The culture solution was changed once every two days, then once every day after 1 week. After cultured for 5 days, the cells were ready for transport experiment when the resistance achieves a platform (>2000 Ω·cm^2).
The solution in the lower pools was collected at 0, 30, 90 and 120 min and stored at −20° C. for later measurement. The permeation amount of the Rho-123 in the lower pools was detected by a fluorescence spectrophotometer, wherein the transmission wavelength was set to […] and the excitation wavelength was set to 530 nm.
The Millicell inoculated with cells was soaked with HBSS solution at 37° C. for an appropriate time before the test, and slightly flushed to remove matters attached on the surfaces of the cells. […] Each concentration was repeated in three wells, the sample was precisely added with 50 μL of internal standard solution and 350 μL of ethyl acetate, shaked and uniformly mixed, centrifugated at 12000 rmp for 5 min, 300 μL of supernatant was took, volatilized to dryness, re-dissolved with 50 μL of acetonitrile and 10 μL was took for sampling and determination. Permeability from the basal surface to the cavity surface: drug was added from the basolateral side (BL), while the blank HBSS solution was added from the apical side (AP), and the following steps were same as those in the permeability test from the cavity surface to the basal surface.
The apparent permeability coefficient (Papp) of the drug reflected the capability of permeating the monolayer cells of the drug and the absorption speed and degree of the drug, which can be calculated by the following formula: […]
wherein, ΔQ was the permeation amount of the drug in a Δt time period, A was the surface area of the cells, namely the area (0.6 cm^2) of a support membrane in the model, and CO was the initial concentration. The unit of the Papp was commonly represented by cm·h^−1 or cm·s^−1.
The sample was detected by LC/MS. Concentration of each sample was quantified with a standard curve (50 nM-10000 nM).

[2] = system: chicken embryonic dorsal root ganglia; experiment: Neurotrophic activity: in-vitro serum-free culture model of chicken embryonic dorsal root ganglia, neurite growth score; format: cell-based; conditions: 48 h, score 0-3, control 0.33
Method: The neurotrophic activity of the compound of the present invention can be reflected on a variety of in-vitro biological models, such as an in-vitro serum-free culture model of chicken embryonic dorsal root ganglia. Chicken embryo incubated for 8 d was used, and spine and ganglia on the two sides were exposed under a dissecting microscope in sterile environment. The dorsal root ganglia was picked one by one with tweezers, inoculated into culture bottles laid with rat tail collagen according to 5-6 dorsal root ganglia per bottle, two bottles were prepared per dose, and cultured at 37° C., 5% of CO2, for 1 h in an incubator for adherence, then added with a serum-free culture medium DMEM containing NGF (0.15 ng/mL) and the compound of the present invention, while the control group was only added with the culture medium and the same dose of NGF. After being cultured in the incubator for 48 h, the growth of the neurite around dorsal root ganglia was observed under an inverted phase contrast microscope and scored according to the length and density of the neurite, wherein 0 point represents no neurite; 1 point represents the neurite was sparse; 2 points represent the neurite was relatively long or dense; and 3 points represent the neurite was long and dense. The score of the growth of neurite of chicken embryonic dorsal root ganglion under the promotion of the compound of the present invention with different dosage was shown in table 1, wherein each score is an average of five dorsal root ganglia.

[3] = system: BCAO-LBP mice; experiment: Anti incomplete cerebral ischemia effect in mouse bilateral carotid artery occlusion with low blood pressure (BCAO-LBP) model, intragastric administration; format: in vivo, Kunming mice; conditions: 30 mg/kg i.g once per day for 3 d, x ± SEM; for Neural deficit score: medium group 3.92 ± 0.25; for MDA content: whole brain, medium group 40.94 ± 1.754
Text: The example, which took Kunming mice as experimental subjects, investigated the protection of prevention administration of the compound of the present invention against incomplete cerebral ischemia of mice, through intravenous and intragastric administration, on mouse bilateral carotid artery occlusion with low blood pressure (BCAO-LBP) model, by measuring neurological function score and MDA content in brain.
2.1.2 Preparation of drug for intragastric administration: the compound of the present invention was made into 30 mg/kg by using 0.7% CMC-Na, fully and uniformly mixed with sonication to afford a solution of 1.5 mg/ml. Intragastric (i.g) administration was performed according to 0.2 ml/10 g.
28 mice which had adapted to the laboratory environment for one week were divided into balanced groups according to body weight, i.g administered respectively with 0.7% CMC-Na or the compound of the present invention, once per day for continuous 3 d. The specific groups were as follows:
drug group: 12 mice, with i. g of solution of compounds of the present invention separately, wherein the dosage was 30 mg/kg
2.3.1 Mouse bilateral carotid artery ligation: the mouse was performed with orbit bloodletting (about 30% of the total blood volume of the mouse) to lower the blood pressure 1 h later after last administration, then the mouse was fixed on an operation plate in a supine position, and an incision in the middle of the neck was made. The common carotid artery was exposed with blunt separation, and 2 sutures were prepared under each end of the exposed artery, and both end of the artery were ligatured, respectively. When the ligation was completed for the […], started timing, then cut the common carotid artery between the two ligations, and the incision was sutured. In the sham operation group, the common carotid artery was separated without ligation. The mouse was rapidly released after the operation, the behavior in 6 h and the death time of the mouse was observed and recorded (scored by a blind method according to the following table). The brain was quickly took out after death, the cerebellum was removed, and the MDA content in the whole brain was determined by a TBA method.
The brain of a mouse was taken out, weighted, prepared into 15% brain homogenate with N.S, 1.2 ml of the homogenate was taken out and put into a 37° C. water bath for 1 h (shaked once every 10 min), then taken out from water, added with 0.6 ml of 20% trichloroacetic acid, uniformly mixed, and stood for 10 min, centrifugated at 2000 r for 10 min, 1.2 ml of supernatant fluid was added with 0.6 ml of 0.67% TBA, and put into a boiling water bath for 10 min, then cooled, and OD value was determined at 532 nm.
Experimental data was represented by x±SEM, SPSS13.0 statistical software was applied, homogeneity of variance was judged by single-factor variance analysis. The homogeneity of variance was tested by LSD, the non-homogeneity of variance was tested by Dunnett's T3, the significant differences between the groups were compared and P<0.05 represented a statistical significance.

[4] = compound 1 pM + NGF (0.15 ng/mL)
[5] = compound 100 pM + NGF (0.15 ng/mL)

Row | Papp(×10^−6) [1] | melting point [°C] | SMILES | Mean score (growth of neurite of chicken embryonic dorsal root ganglion) [2, 4] | Mean score (growth of neurite of chicken embryonic dorsal root ganglion) [2, 5] | Neural deficit score [3] | MDA content [3] [nmol/g]
1 | 49.8 ×10^−6 | – | CCCOC(=O)[C@@H](CC(C)C)NC(=O)[C@@H]1CSCCN1S(=O)(=O)c1ccc(C)cc1 [Example 7, (2R)-4-Methyl-2-{[(3R)-4-(toluene-4-sulfonyl)-thiomorpholine-3-carbonyl]-amino}-pentanoic acid propyl ester] | 1.46 | 1.95 | 2.91 ± 0.28 | 34.90 ± 1.65
2 | 12.4 ×10^−6 | 91 to 93 | Cc1ccc(S(=O)(=O)N2CCSC[C@H]2C(=O)N[C@H](CC(C)C)C(=O)OCc2ccccc2)cc1 [Example 9, (2R)-4-Methyl-2-{[(3R)-4-(toluene-4-sulfonyl)-thiomorpholine-3-carbonyl]-amino}-pentanoic acid benzyl ester] | – | – | – | –
3 | 19.2 ×10^−6 | – | CCOC(=O)[C@@H](CC(C)C)NC(=O)[C@@H]1CSCCN1S(=O)(=O)c1ccc(C)cc1 [Example 6, (2R)-4-Methyl-2-{[(3R)-4-(toluene-4-sulfonyl)-thiomorpholine-3-carbonyl]-amino}-pentanoic acid ethyl ester] | 1.23 | 1.88 | 3.08 ± 0.40 | 30.87 ± 0.95

Continued, molecule first:

Row | SMILES | Papp(×10^−6) [1] | melting point [°C] | Mean score (growth of neurite of chicken embryonic dorsal root ganglion) [2, 4] | Mean score (growth of neurite of chicken embryonic dorsal root ganglion) [2, 5] | Neural deficit score [3] | MDA content [3] [nmol/g]
4 | Cc1ccc(S(=O)(=O)N2CCSC[C@H]2C(=O)N[C@H](CC(C)C)C(=O)O)cc1 [Example 10, (2R)-4-Methyl-2-{[(3R)-4-(toluene-4-sulfonyl)-thiomorpholine-3-carbonyl]-amino}-pentanoic acid] | 34.1 ×10^−6 | – | – | – | – | –
5 | Cc1ccc(S(=O)(=O)N2CCSC[C@H]2C(=O)N[C@H](CC(C)C)C(=O)O)cc1 (hydrate or solvate) [Example 10, (2R)-4-Methyl-2-{[(3R)-4-(toluene-4-sulfonyl)-thiomorpholine-3-carbonyl]-amino}-pentanoic acid] | – | 87 to 89 | – | – | – | –
6 | CCOC(=O)[C@H](CC(C)C)NC(=O)[C@@H]1CSCCN1S(=O)(=O)c1ccc(C)cc1 [Example 5, (2S)-4-Methyl-2-{[(3R)-4-(toluene-4-sulfonyl)-thiomorpholine-3-carbonyl]-amino}-pentanoic acid ethyl ester] | 8.38 ×10^−6 | – | 0.65 | 1.55 | 3.62 ± 0.31 | 36.09 ± 1.85
7 | Cc1ccc(S(=O)(=O)N2CCSC[C@H]2C(=O)N[C@H](CC(C)C)C(=O)OC(C)C)cc1 [Example 8, (2R)-4-Methyl-2-{[(3R)-4-(toluene-4-sulfonyl)-thiomorpholine-3-carbonyl]-amino}-pentanoic acid isopropyl ester] | 39.5 ×10^−6 | – | 1.68 | 2.25 | 2.67 ± 0.31 | 33.27 ± 1.91
